From patent US8017775B2, “1-2-dihydroquinoline derivative having glucocorticoid receptor binding activity” (Santen Pharmaceutical Co., Ltd., priority 2005, dated 2011)

Target: T1, Recombinant human GR (Homo sapiens, UniProt P04150)
T1 construct: purchased Invitrogen P2816
T1 sequence (P04150 1-777): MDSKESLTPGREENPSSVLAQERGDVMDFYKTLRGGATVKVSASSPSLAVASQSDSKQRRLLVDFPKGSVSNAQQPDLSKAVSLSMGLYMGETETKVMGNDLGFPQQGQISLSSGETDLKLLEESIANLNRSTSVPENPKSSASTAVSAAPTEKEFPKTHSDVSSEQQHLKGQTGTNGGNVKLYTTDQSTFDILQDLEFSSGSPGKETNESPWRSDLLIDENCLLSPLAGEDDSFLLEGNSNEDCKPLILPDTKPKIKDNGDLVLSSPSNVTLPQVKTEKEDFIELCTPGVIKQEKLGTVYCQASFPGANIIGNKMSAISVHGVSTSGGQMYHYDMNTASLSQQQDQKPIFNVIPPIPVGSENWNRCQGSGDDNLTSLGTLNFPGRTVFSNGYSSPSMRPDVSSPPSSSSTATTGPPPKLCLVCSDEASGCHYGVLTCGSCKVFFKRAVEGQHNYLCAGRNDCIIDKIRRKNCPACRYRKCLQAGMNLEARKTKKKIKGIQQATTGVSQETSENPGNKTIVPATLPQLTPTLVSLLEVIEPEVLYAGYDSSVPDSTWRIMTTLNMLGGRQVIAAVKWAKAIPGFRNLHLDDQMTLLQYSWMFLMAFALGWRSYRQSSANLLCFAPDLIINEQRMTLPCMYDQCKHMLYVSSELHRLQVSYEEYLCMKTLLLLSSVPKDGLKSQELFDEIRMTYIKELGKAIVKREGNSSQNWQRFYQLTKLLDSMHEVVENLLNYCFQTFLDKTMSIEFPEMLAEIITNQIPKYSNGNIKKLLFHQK
Assay: GR competitor assay by fluorescence polarization (GR binding ratio)
Conditions: positive control 2 mM dexamethasone, a GR binding ratio of 100% or more is indicated by 100%
Description: 1. Evaluation Test for Binding Activity to Glucocorticoid Receptor (hereinafter referred to as “GR”)
In order to evaluate a binding activity to GR, a receptor competitor assay was carried out by a fluorescence polarization method. In the assay, a GR competitor assay kit (manufactured by Invitrogen, cat No. P2816) was used, and a procedure was carried out according to the protocol attached to the kit. Hereinafter, the specific method will be described.
GR screening buffer: A buffer containing 10 mM potassium phosphate (pH 7.4), 20 mM sodium molybdate (Na2MoO4), 0.1 mM ethylene diamine tetraacetic acid (EDTA), 5 mM dithiothreitol (DTT), 0.1 mM stabilizing peptide and 2% dimethylsulfoxide was prepared.
4×GS1 solution: Fluormone™ GS1, which is a fluorescent glucocorticoid ligand, was diluted with GR screening buffer, whereby a 4 nM solution was prepared.
4×GR solution: Recombinant human GR was diluted with GR screening buffer, whereby a 16 nM solution was prepared.
After a test compound was dissolved in dimethylsulfoxide, the resulting solution was diluted with GR screening buffer, whereby a 20 μM test compound solution was prepared.
1) The test compound solution was added in an amount of 25 μL or 10 μL into each well of a 96-well or 384-well plate, and then, 4×GS1 solution and 4×GR solution were added in an amount of 12.5 μL or 5 μL into each well, respectively.
2) The plate was incubated in a dark place at room temperature for 2 to 4 hours.
3) By using a multimode plate reader, Analyst™ HT (manufactured by LJL Biosystems), fluorescence polarization of each well was measured. As the blank, a well containing GR screening buffer in place of the test compound and 4×GS1 solution was used.
4) The same procedure as that in the above 1) to 3) was carried out except that GR screening buffer was used in place of the test compound solution, and the obtained result was taken as the negative control.
5) The same procedure as that in the above 1) to 3) was carried out except that 2 mM dexamethasone was used in place of the test compound solution, and the obtained result was taken as the positive control.
A GR binding ratio (%) was calculated from the following equation.
GR binding ratio (%)=100×[1−(fluorescence polarization of test compound solution−fluorescence polarization of positive control solution)/(fluorescence polarization of negative control solution−fluorescence polarization of positive control solution)]

GR Binding ratio (%) | Structure (SMILES)
≥ 100 | COc1ccc(F)cc1OCc1c(-c2ccc(F)cc2OC)ccc2c1C(C)=CC(C)(C)N2 [Compound 3-67, 5-(5-Fluoro-2-methoxyphenoxymethyl)-6-(4-fluoro-2-methoxyphenyl)-2,2,4-trimethyl-1,2-dihydroquinoline]
≥ 100 | COc1cc(F)ccc1-c1ccc2c(c1COC(=O)c1ccccc1C)C(C)=CC(C)(C)N2 [Compound 1-46, 6-(4-Fluoro-2-methoxyphenyl)-5-(2-methylbenzoyloxymethyl)-2,2,4-trimethyl-1,2-dihydroquinoline]
96 | COc1cc(F)c(F)cc1-c1ccc2c(c1CNc1ccccc1C)C(C)=CC(C)(C)N2 [Compound 6-59, 6-(4,5-Difluoro-2-methoxyphenyl)-5-(2-methylphenylaminomethyl)-2,2,4-trimethyl-1,2-dihydroquinoline]
≥ 100 | COc1ccc(C)cc1-c1ccc2c(c1COC(=O)c1ccc(C)s1)C(C)=CC(C)(C)N2 [Compound 12-67, 6-(2-Methoxy-5-methylphenyl)-5-(5-methylthiophen-2-yl-carbonyloxymethyl)-2,2,4-trimethyl-1,2-dihydroquinoline]
≥ 100 | COc1ccc(C(F)(F)F)cc1-c1ccc2c(c1CNc1cc(F)ccc1C)C(C)=CC(C)(C)N2 [Compound 6-79, 5-(5-Fluoro-2-methylphenylaminomethyl)-6-(2-methoxy-5-trifluoromethylphenyl)-2,2,4-trimethyl-1,2-dihydroquinoline]
≥ 100 | COc1ccc(F)cc1-c1ccc2c(c1CNc1cc(F)ccc1C)C(C)=CC(C)(C)N2 [Compound 6-78, 6-(5-Fluoro-2-methoxyphenyl)-5-(5-fluoro-2-methylphenylaminomethyl)-2,2,4-trimethyl-1,2-dihydroquinoline]
≥ 100 | C/C=C/c1ccccc1OCc1c(-c2ccc(F)cc2OC)ccc2c1C(C)=CC(C)(C)N2 [Compound 3-62, 6-(4-Fluoro-2-methoxyphenyl)-5-[2-(1-propenyl)phenoxymethyl]-2,2,4-trimethyl-1,2-dihydroquinoline]
≥ 100 | COc1cc(F)ccc1-c1ccc2c(c1CNc1ccccc1CCO)C(C)=CC(C)(C)N2 [Compound 6-77, 6-(4-Fluoro-2-methoxyphenyl)-5-[2-(2-hydroxyethyl)phenylaminomethyl)-2,2,4-trimethyl-1,2-dihydroquinoline]
≥ 100 | C=CCc1ccccc1OCc1c(-c2cc(Cl)ccc2OC)ccc2c1C(C)=CC(C)(C)N2 [Compound 14-47, 5-(2-Allylphenoxymethyl)-6-(5-chloro-2-methoxyphenyl)-2,2,4-trimethyl-1,2-dihydroquinoline]
95 | COc1ccc(O)cc1-c1ccc2c(c1COc1cc(F)ccc1C)C(C)=CC(C)(C)N2 [Compound 5-4, 5-(5-Fluoro-2-methylphenoxymethyl)-6-(5-hydroxy-2-methoxyphenyl)-2,2,4-trimethyl-1,2-dihydroquinoline]
99 | COc1ccc(C(F)(F)F)cc1-c1ccc2c(c1COc1cc(F)ccc1C)C(C)=CC(C)(C)N2 [Compound 14-15, 5-(5-Fluoro-2-methylphenoxymethyl)-6-(2-methoxy-5-trifluoromethylphenyl)-2,2,4-trimethyl-1,2-dihydroquinoline]
≥ 100 | COc1ccccc1NCc1c(-c2cc(F)c(F)cc2OC)ccc2c1C(C)=CC(C)(C)N2 [Compound 6-27, 6-(4,5-Difluoro-2-methoxyphenyl)-5-(2-methoxyphenylaminomethyl)-2,2,4-trimethyl-1,2-dihydroquinoline]
≥ 100 | CCOc1cc(F)ccc1-c1ccc2c(c1COC(=O)c1ccc(C)s1)C(C)=CC(C)(C)N2 [Compound 12-58, 6-(2-Ethoxy-4-fluorophenyl)-5-[(5-methylthiophen-2-yl)carbonyloxymethyl]-2,2,4-trimethyl-1,2-dihydroquinoline]
76 | COc1ccc(OCc2ccccc2)cc1-c1ccc2c(c1COc1cc(F)ccc1C)C(C)=CC(C)(C)N2 [Compound 15-2, 6-(5-Benzyloxy-2-methoxyphenyl)-5-(5-fluoro-2-methylphenoxymethyl)-2,2,4-trimethyl-1,2-dihydroquinoline]
≥ 100 | COc1cc(F)ccc1-c1ccc2c(c1COC(=O)c1sccc1Cl)C(C)=CC(C)(C)N2 [Compound 12-17, 5-[(3-Chlorothiophen-2-yl)carbonyloxymethyl]-6-(4-fluoro-2-methoxyphenyl)-2,2,4-trimethyl-1,2-dihydroquinoline]
≥ 100 | COc1cc(F)ccc1-c1ccc2c(c1COC(=O)c1ccc(Br)s1)C(C)=CC(C)(C)N2 [Compound 12-25, 5-[(5-Bromothiophen-2-yl)carbonyloxymethyl]-6-(4-fluoro-2-methoxyphenyl)-2,2,4-trimethyl-1,2-dihydroquinoline]
≥ 100 | COc1cc(F)ccc1-c1ccc2c(c1COc1cc(C)ccc1C)C(C)=CC(C)(C)N2 [Compound 3-58, 5-(2,5-Dimethylphenoxymethyl)-6-(4-fluoro-2-methoxyphenyl)-2,2,4-trimethyl-1,2-dihydroquinoline]
≥ 100 | COc1cc(F)ccc1-c1ccc2c(c1COc1cc(F)ccc1C)C(C)=CC(C)(C)N2 [Compound 3-48, 6-(4-Fluoro-2-methoxyphenyl)-5-(5-fluoro-2-methylphenoxymethyl)-2,2,4-trimethyl-1,2-dihydroquinoline]
≥ 100 | COc1ccc(Cl)cc1-c1ccc2c(c1COC(=O)c1ccc(C)s1)C(C)=CC(C)(C)N2 [Compound 12-69, 6-(5-Chloro-2-methoxyphenyl)-5-(5-methylthiophen-2-ylcarbonyloxymethyl)-2,2,4-trimethyl-1,2-dihydroquinoline]
≥ 100 | COc1ccc(F)cc1-c1ccc2c(c1COc1cc(C)ccc1C)C(C)=CC(C)(C)N2 [Compound 14-40, 5-(2,5-Dimethylphenoxymethyl)-6-(5-fluoro-2-methoxyphenyl)-2,2,4-trimethyl-1,2-dihydroquinoline]
≥ 100 | CCOc1ccccc1NCc1c(-c2ccc(F)cc2OC)ccc2c1C(C)=CC(C)(C)N2 [Compound 6-24, 5-(2-Ethoxyphenylaminomethyl)-6-(4-fluoro-2-methoxyphenyl)-2,2,4-trimethyl-1,2-dihydroquinoline]
≥ 100 | COc1cc(F)ccc1-c1ccc2c(c1COc1cc(C=O)ccc1C)C(C)=CC(C)(C)N2 [Compound 3-94, 6-(4-Fluoro-2-methoxyphenyl)-5-(5-formyl-2-methylphenoxymethyl)-2,2,4-trimethyl-1,2-dihydroquinoline]
≥ 100 | COc1ccc(F)cc1-c1ccc2c(c1COc1cc(Cl)ccc1C)C(C)=CC(C)(C)N2 [Compound 14-41, 5-(5-Chloro-2-methylphenoxymethyl)-6-(5-fluoro-2-methoxyphenyl)-2,2,4-trimethyl-1,2-dihydroquinoline]
≥ 100 | COc1ccc(F)cc1-c1ccc2c(c1COc1cc(F)ccc1C)C(C)=CC(C)(C)N2 [Compound 14-43, 6-(5-Fluoro-2-methoxyphenyl)-5-(5-fluoro-2-methylphenoxymethyl)-2,2,4-trimethyl-1,2-dihydroquinoline]
≥ 100 | COc1ccc(C(=O)OCc2c(-c3ccc(F)cc3OC)ccc3c2C(C)=CC(C)(C)N3)cc1 [Compound 1-19, 6-(4-Fluoro-2-methoxyphenyl)-5-(4-methoxybenzoyloxymethyl)-2,2,4-trimethyl-1,2-dihydroquinoline]
